40 compounds from patent US20230218632A1, “CYCLIC SULFONAMIDE DERIVATIVES AS TRAP1 MODULATORS AND USES THEREOF” (Amathus Therapeutics, Inc., priority 2020, published 2023) can be followed below.

Molecules are shown by their SMILES. pEC50: −log10 of the molar value. Bounds are passed on as bounds.

The experiment has as its target T1, TRAP1 enzyme (Homo sapiens, UniProt Q12931).
T1 sequence (Q12931 60-704): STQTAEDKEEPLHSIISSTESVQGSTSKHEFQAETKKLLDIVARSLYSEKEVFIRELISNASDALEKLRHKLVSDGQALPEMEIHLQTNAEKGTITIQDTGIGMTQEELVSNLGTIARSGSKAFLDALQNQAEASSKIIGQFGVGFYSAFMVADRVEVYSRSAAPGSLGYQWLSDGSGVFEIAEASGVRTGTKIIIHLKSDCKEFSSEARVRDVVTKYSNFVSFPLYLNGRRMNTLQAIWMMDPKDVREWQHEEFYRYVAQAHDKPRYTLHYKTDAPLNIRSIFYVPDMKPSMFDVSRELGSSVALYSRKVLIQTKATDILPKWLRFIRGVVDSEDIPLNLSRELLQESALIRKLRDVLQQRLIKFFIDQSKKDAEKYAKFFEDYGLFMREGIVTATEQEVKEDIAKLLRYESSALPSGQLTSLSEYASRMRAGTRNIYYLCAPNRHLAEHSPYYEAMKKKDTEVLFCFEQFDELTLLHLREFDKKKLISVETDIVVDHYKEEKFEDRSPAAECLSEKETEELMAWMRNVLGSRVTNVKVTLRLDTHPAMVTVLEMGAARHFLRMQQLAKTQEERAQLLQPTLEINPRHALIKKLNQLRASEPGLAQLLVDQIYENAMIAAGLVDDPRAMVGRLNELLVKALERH
The experiment can be described thus: ADP Glo assay (ATPase activity of TRAP1). The class given is biochemical. The settings on record: for pEC50: 150 nM Trap1, 20 µM ATP, concentration for half maximal activation, read-out: ADP GLO DRC: GeoMean EC50; for Emax: maximal percent activation, read-out: ADP GLO DRC: Mean Emax. Here is the method: Potency of test compounds to modulate the ATPase activity of TRAP1 enzyme was evaluated using ADP Glo assay. The assay is based on quantification of the ADP generated from ATP in the ATPase reaction. The assay is performed in two steps; first, after the ATPase reaction, an equal volume of ADP-Glo™ Reagent is added to terminate the ATPase reaction and deplete the remaining ATP. Second, the Kinase Detection Reagent is added to simultaneously convert ADP to ATP and allow the newly synthesized ATP to be measured using a luciferase/luciferin reaction.
All the assays were carried out in a 384-well Proxiplate. The buffer used was 25 mM Pipes pH-7.5, 40 mM KCl, 0.05 mM MgCl2, 0.025 % BSA, 0.316 mM EGTA, 0.003% Empigen, 0.01% Igepal. 150 nM Trap1 enzyme was incubated with various concentrations of the test compound (0.79 µM - 100 µM) at 37° C. for 30 mins (except in blank wells). 20 µM ATP was added to each well to start the reaction. The plate was spun for 1 min at 1200 rpm and then incubated at 37° C. for 60 mins. 5 µl of ADP Glo reagent was added to all the wells and spun the plate for 1 min at 1200 rpm and kept it on a shaker at ambient temperature for 60 mins. 10 µl of kinase detection mix was added to all the wells and the plate was read for Luminescence at 495 nm. The amount of ADP released was estimated from ATP/ADP standard curve generated at the same experimental conditions. Emax (Maximal percent activation) and EC50 (concentration for half maximal activation ) were estimated by fitting the dose response data to a sigmoidal curve fitting equation using Graphpad Prism software V. 8.
In general terms: ADP-Glo first removes unused ATP, then detects ADP through luciferase.

What is called pEC50 is the EC50 on a negative log10 scale, so that one unit is a factor of ten. In general, Emax refers to the maximal effect, on the per cent scale that the assay sets.

Take `COc1cccnc1C(=O)Nc1ccc2c(c1)S(=O)(=O)N(c1ccc(C(F)(F)F)cc1)CCO2` [Compound 2288]: the pEC50 was greater than 4.70 and the Emax lay within 150 to 200%.

For `O=C(Nc1ccc2c(c1)S(=O)(=O)N(c1ccc(C(F)(F)F)cc1)CCO2)c1ccnc(CO)c1` [Compound 2290], the pEC50 is 4.00 to 4.52 and the Emax was greater than 200%.

Consider `O=C(Nc1ccc2c(c1)S(=O)(=O)N(c1ccc(C(F)(F)F)cc1)CCO2)c1cccc(CO)n1` [Compound 2291], for which the pEC50 was greater than 4.70 and the Emax was 150 to 200%.

Take `Cn1ccc(C(=O)Nc2ccc3c(c2)S(=O)(=O)N(c2ccc(C(F)(F)F)cc2)CCO3)n1` [Compound 2294]: the pEC50 is greater than 4.70 and the Emax was 150 to 200%.

Regarding `Cc1c(C(=O)Nc2ccc3c(c2)S(=O)(=O)N(c2ccc(C(F)(F)F)cc2)CCO3)cnn1C` [Compound 2295], the pEC50 was 4.00 to 4.52 and the Emax is greater than 200%.

As to `O=C(Nc1ccc2c(c1)S(=O)(=O)N(c1ccc(C(F)(F)F)cc1)CCO2)c1ccc(CO)cn1` [Compound 2296], the pEC50 was greater than 4.70 and the Emax was 150 to 200%.

As to `O=C(Nc1ccc2c(c1)S(=O)(=O)N(c1ccc(C(F)(F)F)cc1)CCO2)c1ccc(O)nc1` [Compound 2299], the pEC50 is 4.00 to 4.52 and the Emax is greater than 200%.

As to `O=C(Nc1ccc2c(c1)S(=O)(=O)N(c1ccc(C(F)(F)F)cc1)CCO2)c1csc(CO)n1` [Compound 2305], the pEC50 was 4.52 to 4.70 and the Emax was 129 to 149%.

With `Cc1cnn(C)c1C(=O)Nc1ccc2c(c1)S(=O)(=O)N(c1ccc(C(F)(F)F)cc1)CCO2` [Compound 2317], the negative logarithm of the EC50 (pEC50) was greater than 4.70 and the Emax was 129 to 149%.

On to `COc1ccncc1C(=O)Nc1ccc2c(c1)S(=O)(=O)N(c1ccc(C(F)(F)F)cc1)CCO2` [Compound 2323], for which the pEC50 was 4.52 to 4.70 and the Emax lay in the range of 150 to 200%.

`O=C(Nc1ccc2c(c1)S(=O)(=O)N(c1ccc(C(F)(F)F)cc1)CCO2)c1cnc[nH]c1=O` [Compound 2334]: the negative logarithm of the EC50 (pEC50) is greater than 4.70 and the Emax fell in the range of 150 to 200%.

On to `Cc1ncnc(C)c1C(=O)Nc1ccc2c(c1)S(=O)(=O)N(c1ccc(C(F)(F)F)cc1)CCO2` [Compound 2337], for which the negative logarithm of the EC50 (pEC50) is 4.00 to 4.52 and the Emax fell in the range of 150 to 200%.

For the compound `Cc1cc(C(=O)Nc2ccc3c(c2)S(=O)(=O)N(c2ccc(C(F)(F)F)cc2)CCO3)n(C)n1` [Compound 2339], the pEC50 was greater than 4.70 and the Emax lay within 129 to 149%.

`Cc1ncn(C)c1C(=O)Nc1ccc2c(c1)S(=O)(=O)N(c1ccc(C(F)(F)F)cc1)CCO2` [Compound 2343]: the pEC50 was 4.00 to 4.52 and the Emax is 150 to 200%.

`CCc1ncccc1C(=O)Nc1ccc2c(c1)S(=O)(=O)N(c1ccc(C(F)(F)F)cc1)CCO2` [Compound 2344]: the pEC50 is greater than 4.70 and the Emax was 150 to 200%.

Turning to `Cc1oncc1C(=O)Nc1ccc2c(c1)S(=O)(=O)N(c1ccc(C(F)(F)F)cc1)CCO2` [Compound 2345], the pEC50 was 4.00 to 4.52 and the Emax lay within 150 to 200%.

For the compound `Cn1c(C(=O)Nc2ccc3c(c2)S(=O)(=O)N(c2ccc(C(F)(F)F)cc2)CCO3)cnc1O` [Compound 2351], the pEC50 is 4.00 to 4.52 and the Emax is greater than 200%.

For the compound `Cc1ncc(C(=O)Nc2ccc3c(c2)S(=O)(=O)N(c2ccc(C(F)(F)F)cc2)CCO3)n1C` [Compound 2355], the pEC50 was greater than 4.70 and the maximal effect (Emax) is greater than 200%.

Consider `Cc1ccc(N2CCOc3ccc(NC(=O)c4ncoc4C)cc3S2(=O)=O)cc1` [Compound 2362], for which the pEC50 is 4.00 to 4.52 and the maximal effect (Emax) lay in the range of 150 to 200%.

For `Cc1ocnc1C(=O)Nc1ccc2c(c1)S(=O)(=O)N(c1ccc(F)cc1)CCO2` [Compound 2375, N-(2-(4-fluorophenyl)-1,1-dioxido-3,4-dihydro-2H-benzo[b][1,4,5]oxathiazepin-8-yl)-5-methyloxazole-4-carboxamide], the pEC50 is 4.00 to 4.52 and the Emax was 150 to 200%.

With `Cc1ocnc1C(=O)Nc1ccc2c(c1)S(=O)(=O)N(c1ccc(C#N)cc1)CCO2` [Compound 2377, N-(2-(4-cyanophenyl)-1,1-dioxido-3,4-dihydro-2H-benzo[b][1,4,5]oxathiazepin-8-yl)-5-methyloxazole-4-carboxamide], the pEC50 is 4.00 to 4.52 and the maximum response (Emax) is 150 to 200%.

`Cc1ncoc1C(=O)Nc1ccc2c(c1)S(=O)(=O)N(c1ccc(C(F)(F)F)nc1)CCO2` [Compound 2388]: the pEC50 was 4.00 to 4.52 and the Emax lay within 150 to 200%.

Take `COc1cc(N2CCOc3ccc(NC(=O)c4ncoc4C)cc3S2(=O)=O)ccc1C(F)(F)F` [Compound 2398]: the pEC50 is greater than 4.70 and the Emax is 129 to 149%.

On to `CN1CCCCC1C(=O)Nc1ccc2c(c1)S(=O)(=O)N(c1ccc(C(F)(F)F)cc1)CCO2` (centres unmarked) [Compound 2402], for which the pEC50 is 4.00 to 4.52 and the Emax lay in the range of 150 to 200%.

Regarding `O=C(Nc1ccc2c(c1)S(=O)(=O)N(c1ccc(C(F)(F)F)cc1)CCO2)C1CCCN1` (centres unmarked) [Compound 2410], the pEC50 is 4.00 to 4.52 and the Emax lay within 150 to 200%.

`CN1CCCC1C(=O)Nc1ccc2c(c1)S(=O)(=O)N(c1ccc(C(F)(F)F)cc1)CCO2` (centres unmarked) [Compound 2417]: the pEC50 is 4.00 to 4.52 and the Emax was in the range of 150 to 200%.

`O=C(Nc1ccc2c(c1)S(=O)(=O)N(c1ccc(C(F)(F)F)cc1)CCO2)c1cnc(-c2ccccc2)[nH]1` [Compound 2423]: the negative-log EC50 (pEC50) is greater than 4.70 and the Emax fell in the range of 129 to 149%.

`O=C(Nc1ccc2c(c1)S(=O)(=O)N(c1ccc(C(F)(F)F)cc1)CCO2)c1csc2c1CNCC2` [Compound 2433]: the pEC50 was 4.00 to 4.52 and the Emax was greater than 200%.

Take `CC(C)n1cncc1C(=O)Nc1ccc2c(c1)S(=O)(=O)N(c1ccc(C(F)(F)F)cc1)CCO2` [Compound 2439]: the negative logarithm of the EC50 (pEC50) is 4.52 to 4.70 and the maximal response (Emax) lay within 150 to 200%.

On to `Cc1ncoc1C(=O)Nc1ccc2c(c1)S(=O)(=O)N(c1ccc(C(F)F)cc1)CCO2` [Compound 2443], for which the pEC50 is 4.00 to 4.52 and the Emax lay within 150 to 200%.

Consider `Cc1ocnc1C(=O)N(C)c1ccc2c(c1)S(=O)(=O)N(c1ccc(C(F)(F)F)cc1)CCO2` [Compound 2449], for which the pEC50 was 4.00 to 4.52 and the Emax lay in the range of 150 to 200%.

`Cn1cc(C(=O)Nc2ccc3c(c2)S(=O)(=O)N(c2ccc(C(F)(F)F)cc2)CCO3)c2cccnc21` [Compound 2451]: the pEC50 was greater than 4.70 and the Emax lay in the range of 129 to 149%.

For the compound `Cc1ncoc1C(=O)Nc1ccc2c(c1)S(=O)(=O)N(c1ccc(C(F)(F)F)cc1)CCC2` [Compound 2458], the pEC50 is greater than 4.70 and the Emax lay within 129 to 149%.

As for `Cn1cccc(C(=O)Nc2cnc3c(c2)S(=O)(=O)N(c2ccc(C(F)(F)F)cc2)CCO3)c1=O` [Compound 2462], the pEC50 is 4.52 to 4.70 and the maximal effect (Emax) was in the range of 150 to 200%.

With `CN1CCc2scc(C(=O)Nc3ccc4c(c3)S(=O)(=O)N(c3ccc(C(F)(F)F)cc3)CCO4)c2C1` [Compound 2472], the pEC50 is 4.00 to 4.52 and the Emax is 150 to 200%.

On to `O=C(Nc1ccc2c(c1)S(=O)(=O)N(c1ccc(C(F)(F)F)cc1)CCO2)c1cc(=O)cc[nH]1` [Compound 2473], for which the pEC50 was 4.00 to 4.52 and the Emax is greater than 200%.

With `O=C(Nc1ccc2c(c1)S(=O)(=O)N(c1ccc(C(F)(F)F)cc1)CCO2)c1ncoc1C(F)(F)F` [Compound 2494], the pEC50 was 4.00 to 4.52 and the Emax was in the range of 129 to 149%.

Regarding `Cc1cc(C(=O)Nc2cnc3c(c2)S(=O)(=O)N(c2ccc(C(F)(F)F)cc2)CCO3)n(C)n1` [Compound 2495], the pEC50 was 4.52 to 4.70 and the Emax is greater than 200%.

On to `O=C(Nc1ccc2c(c1)S(=O)(=O)N(c1ccc(C(F)(F)F)cc1)CCO2)c1csc(-c2ccccc2)n1` [Compound 2503], for which the pEC50 is 4.00 to 4.52 and the Emax is 129 to 149%.

As to `Cc1cc(C(=O)Nc2ccc3c(c2)S(=O)(=O)N(c2ccc(C(F)(F)F)cc2)CCO3)cc(C)n1` [Compound 2510], the pEC50 is 4.00 to 4.52 and the Emax is 150 to 200%.
